Patent US20240382483A1, “HETEROCYCLIC EGFR INHIBITORS FOR USE IN THE TREATMENT OF CANCER” (Blueprint Medicines Corporation, priority 2021, published 2024)

Key:
[1] = target: T1, intracellular phosphorylation of EGFR in NCI-H1975 cell line that harbors the EGFR L858R T790M mutations (Homo sapiens, UniProt P00533, L858R/T790M); assay: NCI-H1975 pEGFR AlphaLISA assay; format: cell-based; details: NCI-H1975 cells (EGFR L858R T790M), p-EGFR (Tyr1068), 4-5 hours incubation; read-out: Ext pEGFR H1975 GMean IC50 (nM) Protocol: @Pharmaron AlphaLISA (Num)
T1 construct: NCI-H1975 cell line that harbors the EGFR L858R T790M mutations (ATCC, CRL-5908); host or cells: NCI-H1975
Protocol: On the next day, the test compounds and DMSO control were added into H1975 cell plate followed by incubation at 37C/5% CO2 for 4-5 hours. […] Then 5 μL of a donor bead mix was added to each well followed by overnight incubation at room temperature in dark. On the next day, the plate was read at a compatible plate reader to obtain pEGFR signal. Percent of pEGFR inhibition was plotted against log concentration of compounds to generate IC50 values.

EGFR (L858R T790M C797S) = target: T2, EGFR (L858R T790M C797S) (Homo sapiens, UniProt P00533, C797S/L858R/T790M); assay: Biochemical EGFR inhibition assay (Caliper mobility shift), EGFR LRTMCS; details: LRTMCS (PH) IC50 (nM) @ 1 mM ATP (Num), EGFR LRTMCS mutant
T2 construct: purchased SignalChem E10-122VG
Summary of the method: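 Kinase reactions at 25 °C run to 10–20% peptide phosphorylation, stopped with 35 mM EDTA. Phosphorylated product and substrate separated electrophoretically by mobility shift. Apparent IC50 from percent activity versus log compound concentration.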

T2 sequence (P00533 25-1210 T790M/C797S/L858R): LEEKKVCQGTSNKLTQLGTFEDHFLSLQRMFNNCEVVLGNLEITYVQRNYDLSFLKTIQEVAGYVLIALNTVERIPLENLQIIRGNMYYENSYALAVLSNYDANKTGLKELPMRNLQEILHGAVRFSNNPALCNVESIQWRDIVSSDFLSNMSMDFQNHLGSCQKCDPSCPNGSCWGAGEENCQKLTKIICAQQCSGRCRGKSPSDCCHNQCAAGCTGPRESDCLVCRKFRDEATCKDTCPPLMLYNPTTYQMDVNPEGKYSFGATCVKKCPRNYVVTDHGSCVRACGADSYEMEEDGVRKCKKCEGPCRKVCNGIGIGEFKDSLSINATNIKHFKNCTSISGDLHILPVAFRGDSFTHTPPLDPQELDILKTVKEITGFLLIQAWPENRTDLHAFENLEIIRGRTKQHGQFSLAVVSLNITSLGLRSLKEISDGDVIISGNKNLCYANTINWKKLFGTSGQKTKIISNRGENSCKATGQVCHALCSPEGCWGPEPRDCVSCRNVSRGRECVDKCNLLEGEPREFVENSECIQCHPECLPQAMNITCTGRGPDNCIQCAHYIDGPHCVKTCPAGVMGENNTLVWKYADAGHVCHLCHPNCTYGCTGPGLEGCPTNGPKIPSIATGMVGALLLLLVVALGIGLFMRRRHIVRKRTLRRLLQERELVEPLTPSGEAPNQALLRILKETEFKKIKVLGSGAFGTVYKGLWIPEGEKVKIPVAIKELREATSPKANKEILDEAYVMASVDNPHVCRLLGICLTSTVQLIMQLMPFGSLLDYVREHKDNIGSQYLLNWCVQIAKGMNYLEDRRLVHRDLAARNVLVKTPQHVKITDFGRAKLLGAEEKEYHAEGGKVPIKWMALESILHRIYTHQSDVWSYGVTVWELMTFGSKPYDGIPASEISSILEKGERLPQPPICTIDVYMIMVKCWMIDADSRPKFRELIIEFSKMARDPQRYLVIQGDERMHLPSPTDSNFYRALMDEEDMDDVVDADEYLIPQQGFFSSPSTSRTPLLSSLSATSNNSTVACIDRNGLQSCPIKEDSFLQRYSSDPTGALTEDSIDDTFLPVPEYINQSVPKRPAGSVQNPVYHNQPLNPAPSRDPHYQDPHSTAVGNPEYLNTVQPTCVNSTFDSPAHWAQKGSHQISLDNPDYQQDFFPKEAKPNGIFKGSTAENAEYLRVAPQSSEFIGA
T1 sequence (P00533 25-1210 T790M/L858R): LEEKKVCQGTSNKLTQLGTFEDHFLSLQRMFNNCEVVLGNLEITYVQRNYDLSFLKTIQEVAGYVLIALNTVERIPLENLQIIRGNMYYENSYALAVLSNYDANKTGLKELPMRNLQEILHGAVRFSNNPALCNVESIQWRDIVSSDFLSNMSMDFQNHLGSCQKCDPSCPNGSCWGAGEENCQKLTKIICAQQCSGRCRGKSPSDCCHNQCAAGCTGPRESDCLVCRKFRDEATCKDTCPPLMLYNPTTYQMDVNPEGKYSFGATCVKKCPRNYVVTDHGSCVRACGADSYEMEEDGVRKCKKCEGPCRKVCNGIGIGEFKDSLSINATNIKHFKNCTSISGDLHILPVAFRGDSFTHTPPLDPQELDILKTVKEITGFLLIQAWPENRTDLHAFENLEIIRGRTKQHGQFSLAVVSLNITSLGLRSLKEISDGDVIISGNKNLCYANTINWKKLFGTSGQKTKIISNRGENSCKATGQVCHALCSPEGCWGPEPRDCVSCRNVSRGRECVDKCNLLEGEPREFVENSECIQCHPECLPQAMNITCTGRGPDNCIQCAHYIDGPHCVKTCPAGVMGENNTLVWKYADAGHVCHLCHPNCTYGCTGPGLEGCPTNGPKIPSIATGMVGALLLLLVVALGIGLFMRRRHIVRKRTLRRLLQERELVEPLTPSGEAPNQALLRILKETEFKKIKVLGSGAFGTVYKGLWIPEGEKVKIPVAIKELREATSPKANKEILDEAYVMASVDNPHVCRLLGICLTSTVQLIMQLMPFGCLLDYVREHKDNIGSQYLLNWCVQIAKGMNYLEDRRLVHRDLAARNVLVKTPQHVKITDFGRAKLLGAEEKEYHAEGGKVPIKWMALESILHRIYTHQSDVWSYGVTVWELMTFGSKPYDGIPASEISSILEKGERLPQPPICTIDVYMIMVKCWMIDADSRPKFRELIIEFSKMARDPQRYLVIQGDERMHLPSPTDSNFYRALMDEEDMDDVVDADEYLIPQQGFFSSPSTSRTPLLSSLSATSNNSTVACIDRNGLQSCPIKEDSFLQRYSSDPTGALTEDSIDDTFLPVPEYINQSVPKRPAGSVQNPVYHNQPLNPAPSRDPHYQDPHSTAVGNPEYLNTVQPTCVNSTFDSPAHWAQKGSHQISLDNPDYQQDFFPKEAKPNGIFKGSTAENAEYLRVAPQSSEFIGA

| IC50 [1] [nM] | IC50 (EGFR (L858R T790M C797S)) [nM] | SMILES |
| --- | --- | --- |
| > 50 | 30 to 100 | C[C@H](CO)c1cnc(N2CC[C@H]2C)c2cnc(Nc3ccnc(N4C[C@@H](F)[C@@H](O)C(C)(C)C4)n3)cc12 (single isomer, unassigned) [Example 187] |
| < 10 | 15 to 20 | CO[C@H]1CCN(c2nccc(Nc3cc4c(C(C)C)ccc(N5C[C@H](c6nnco6)[C@H]5C)c4cn3)n2)C[C@@H]1O (single isomer, unassigned) [Example 217] |
| 30 to 50 | < 15 | CC(C)c1cnc(N2CC(O)C2)c2cnc(Nc3ccnc(N4CC[C@@H](O)[C@@](C)(F)C4)n3)cc12 [Example 62, (3S,4R)-3-fluoro-1-(4-((8-(3-hydroxyazetidin-1-yl)-5-isopropyl-2,7-naphthyridin-3-yl)amino)pyrimidin-2-yl)-3-methylpiperidin-4-ol] |
| 20 to 30 | < 15 | CC(C)c1cnc(N2CC[C@@H](CS(C)(=O)=O)C2)c2cnc(Nc3ccnc(N4CC[C@@H](O)[C@@](C)(F)C4)n3)cc12 (single isomer, unassigned) [Example 207, (3S,4R)-3-fluoro-1-(4-((5-isopropyl-8-((R)-3-((methylsulfonyl)methyl)pyrrolidin-1-yl)-2,7-naphthyridin-3-yl)amino)pyrimidin-2-yl)-3-methylpiperidin-4-ol or (3S,4R)-3-fluoro-1-(4-((5-isopropyl-8-((S)-3-((methylsulfonyl)methyl)pyrrolidin-1-yl)-2,7-naphthyridin-3-yl)amino)pyrimidin-2-yl)-3-methylpiperidin-4-ol] |
| 20 to 30 | < 15 | CO[C@@H]1CCN(c2nccc(Nc3cc4c(C(C)C)cnc(N5C[C@H](OCCN)[C@H]5C)c4cn3)n2)C[C@@H]1F [Example 163, 8-((2R,3S)-3-(2-aminoethoxy)-2-methylazetidin-1-yl)-N-(2-((3S,4R)-3-fluoro-4-methoxypiperidin-1-yl)pyrimidin-4-yl)-5-isopropyl-2,7-naphthyridin-3-amine] |
| 30 to 50 | 20 to 30 | COCC1(F)CN(c2ncc(C(C)C)c3cc(Nc4ccnc(N5CC[C@@H](O)[C@@](C)(F)C5)n4)ncc23)C1 [Example 68, (3S,4R)-3-fluoro-1-(4-((8-(3-fluoro-3-(methoxymethyl)azetidin-1-yl)-5-isopropyl-2,7-naphthyridin-3-yl)amino)pyrimidin-2-yl)-3-methylpiperidin-4-ol] |
| 20 to 30 | < 15 | CC(C)c1cnc(N2CC(CNS(C)(=O)=O)C2)c2cnc(Nc3ccnc(N4CC[C@@H](O)[C@@](C)(F)C4)n3)cc12 [Example 83, N-((1-(6-((2-((3S,4R)-3-fluoro-4-hydroxy-3-methylpiperidin-1-yl)pyrimidin-4-yl)amino)-4-isopropyl-2,7-naphthyridin-1-yl)azetidin-3-yl)methyl)methanesulfonamide] |
| > 50 | 20 to 30 | CO[C@H]1CCN(c2nccc(Nc3cc4c(C(C)C)cnc(N5CCC56CN(C)C6)c4cn3)n2)C[C@H]1F [Example 42, N-(2-((3R,4S)-3-fluoro-4-methoxypiperidin-1-yl)pyrimidin-4-yl)-5-isopropyl-8-(6-methyl-1,6-diazaspiro[3.3]heptan-1-yl)-2,7-naphthyridin-3-amine] |
| 20 to 30 | < 15 | CC(C)c1cnc(N2CC[C@H]2[C@@H](C)O)c2cnc(Nc3ccnc(N4CC[C@@H](O)[C@@](C)(F)C4)n3)cc12 (single isomer, unassigned) [Example 65, (3S,4R)-3-fluoro-1-(4-((8-((S)-2-((R)-1-hydroxyethyl)azetidin-1-yl)-5-isopropyl-2,7-naphthyridin-3-yl)amino)pyrimidin-2-yl)-3-methylpiperidin-4-ol or (3S,4R)-3-fluoro-1-(4-((8-((S)-2-((S)-1-hydroxyethyl)azetidin-1-yl)-5-isopropyl-2,7-naphthyridin-3-yl)amino)pyrimidin-2-yl)-3-methylpiperidin-4-ol] |

More lines, now with the values behind:

| SMILES | IC50 [1] [nM] | IC50 (EGFR (L858R T790M C797S)) [nM] |
| --- | --- | --- |
| CC(C)c1cnc(N2CC[C@]3(C2)CC3(F)F)c2cnc(Nc3ccnc(N4CC[C@@H](O)[C@@](C)(F)C4)n3)cc12 (single isomer, unassigned) [Example 214, (3S,4R)-1-(4-((8-((R)-1,1-difluoro-5-azaspiro[2.4]heptan-5-yl)-5-isopropyl-2,7-naphthyridin-3-yl)amino)pyrimidin-2-yl)-3-fluoro-3-methylpiperidin-4-ol or (3S,4R)-1-(4-((8-((S)-1,1-difluoro-5-azaspiro[2.4]heptan-5-yl)-5-isopropyl-2,7-naphthyridin-3-yl)amino)pyrimidin-2-yl)-3-fluoro-3-methylpiperidin-4-ol] | 30 to 50 | 30 to 100 |
| C[C@@H]1CCN1c1ncc([C@@H]2CCOC2)c2cc(Nc3ccnc(N4CC[C@@H](O)[C@@H](F)C4)n3)ncc12 (single isomer, unassigned) [Example 162, (3S,4R)-3-fluoro-1-(4-((8-((R)-2-methylazetidin-1-yl)-5-((S)-tetrahydrofuran-3-yl)-2,7-naphthyridin-3-yl)amino)pyrimidin-2-yl)piperidin-4-ol or (3S,4R)-3-fluoro-1-(4-((8-((R)-2-methylazetidin-1-yl)-5-((R)-tetrahydrofuran-3-yl)-2,7-naphthyridin-3-yl)amino)pyrimidin-2-yl)piperidin-4-ol] | 30 to 50 | < 15 |
| CC(C)c1cnc(N2CC[C@@H](S(C)(=O)=O)C2)c2cnc(Nc3ccnc(N4CC[C@@H](O)[C@@](C)(F)C4)n3)cc12 [Example 74, (3S,4R)-3-fluoro-1-(4-((5-isopropyl-8-((R)-3-(methylsulfonyl)pyrrolidin-1-yl)-2,7-naphthyridin-3-yl)amino)pyrimidin-2-yl)-3-methylpiperidin-4-ol] | < 10 | < 15 |
| CC(C)c1cnc(N2CCC23CNC3)c2cnc(Nc3ccnc(N4CC[C@@]5(CCO5)C(F)(F)C4)n3)cc12 (single isomer, unassigned) [Example 191, (R)—N-(2-(5,5-difluoro-1-oxa-7-azaspiro[3.5]nonan-7-yl)pyrimidin-4-yl)-5-isopropyl-8-(1,6-diazaspiro[3.3]heptan-1-yl)-2,7-naphthyridin-3-amine or (S)—N-(2-(5,5-difluoro-1-oxa-7-azaspiro[3.5]nonan-7-yl)pyrimidin-4-yl)-5-isopropyl-8-(1,6-diazaspiro[3.3]heptan-1-yl)-2,7-naphthyridin-3-amine] | > 50 | < 15 |
| CC(C)c1ccc(N2CC(C)(c3nnco3)C2)c2cnc(Nc3ccnc(N4CC[C@@H](O)[C@@](C)(F)C4)n3)cc12 [Example 113, (3S,4R)-3-fluoro-1-(4-((5-isopropyl-8-(3-methyl-3-(1,3,4-oxadiazol-2-yl)azetidin-1-yl)isoquinolin-3-yl)amino)pyrimidin-2-yl)-3-methylpiperidin-4-ol] | 10 to 20 | 20 to 30 |
| CC(C)c1nnc(N2CC[C@@H]2C)c2cnc(Nc3ccnc(N4CC[C@@H](O)[C@@](C)(F)C4)n3)cc12 (single isomer, unassigned) [Example 206, (3S,4R)-3-fluoro-1-(4-((1-isopropyl-4-((S)-2-methylazetidin-1-yl)pyrido[3,4-d]pyridazin-7-yl)amino)pyrimidin-2-yl)-3-methylpiperidin-4-ol or (3S,4R)-3-fluoro-1-(4-((1-isopropyl-4-((S)-2-methylazetidin-1-yl)pyrido[3,4-d]pyridazin-7-yl)amino)pyrimidin-2-yl)-3-methylpiperidin-4-ol] | 20 to 30 | < 15 |
